# Measurements reported in US9790178B2, “Pyrrolidinyl urea, thiourea, guanidine and cyanoguanidine compounds as TrkA kinase inhibitors” (Array BioPharma Inc., priority 2012, dated 2017).
# Legend:
# Test in all cases: KinaseProfiler off-target kinase profiling
# Format in all cases: biochemical
# AKT2 = molecular target: T1, AKT2 (Homo sapiens, UniProt P31751); details: 10 μM, ATP near Km
# T1 construct: purchased Millipore, Inc. (KinaseProfiler service)
# Experimental: (§1) A representative compound of the invention (Example 20) was tested for off-target kinase activity at a concentration of 10 μM by Millipore, Inc. in their KinaseProfiler™ service against all the kinases available in their full kinase panel. The compound was run in duplicate at a concentration of ATP near the Km for each individual kinase according to Millipore's specifications. The results are shown in Table B. Data are reported as percent of control (POC) and are the average of the two replicates.
# Axl = molecular target: T2, Axl (Homo sapiens, UniProt P30530); details: 10 μM, ATP near Km
# T2 construct: purchased Millipore, Inc. (KinaseProfiler service)
# Experimental: as §1
# CAMK1d = molecular target: T3, CAMK1d (Homo sapiens, UniProt Q8IU85); details: 10 μM, ATP near Km
# T3 construct: purchased Millipore, Inc. (KinaseProfiler service)
# Experimental: as §1
# CDK1/cyclinB = molecular target: T4, CDK1/cyclinB (Homo sapiens, UniProt P06493); details: 10 μM, ATP near Km
# T4 construct: purchased Millipore, Inc. (KinaseProfiler service)
# Experimental: as §1
# CDK2/cyclinA = molecular target: T5, CDK2/cyclinA (Homo sapiens, UniProt P24941); details: 10 μM, ATP near Km
# T5 construct: purchased Millipore, Inc. (KinaseProfiler service)
# Experimental: as §1
# CDK2/cyclinE = molecular target: T6, CDK2/cyclinE (Homo sapiens, UniProt P24941); details: 10 μM, ATP near Km
# T6 construct: purchased Millipore, Inc. (KinaseProfiler service)
# Experimental: as §1
# CDK6/cyclinD3 = molecular target: T7, CDK6/cyclinD3 (Homo sapiens, UniProt Q00534); details: 10 μM, ATP near Km
# T7 construct: purchased Millipore, Inc. (KinaseProfiler service)
# Experimental: as §1
# CK1delta = molecular target: T8, CK1delta (Homo sapiens, UniProt P48730); details: 10 μM, ATP near Km
# T8 construct: purchased Millipore, Inc. (KinaseProfiler service)
# Experimental: as §1
# CK2 = molecular target: T9, CK2 (Homo sapiens, UniProt P68400); details: 10 μM, ATP near Km
# T9 construct: purchased Millipore, Inc. (KinaseProfiler service)
# Experimental: as §1
# CK2alpha2 = molecular target: T10, CK2alpha2 (Homo sapiens, UniProt P19784); details: 10 μM, ATP near Km
# T10 construct: purchased Millipore, Inc. (KinaseProfiler service)
# Experimental: as §1
# CLK2 = molecular target: T11, CLK2 (Homo sapiens, UniProt P49760); details: 10 μM, ATP near Km
# T11 construct: purchased Millipore, Inc. (KinaseProfiler service)
# Experimental: as §1
# ERK2 = molecular target: T12, ERK2 (Homo sapiens, UniProt P28482); details: 10 μM, ATP near Km
# T12 construct: purchased Millipore, Inc. (KinaseProfiler service)
# Experimental: as §1
# EphB4 = molecular target: T13, EphB4 (Homo sapiens, UniProt P54760); details: 10 μM, ATP near Km
# T13 construct: purchased Millipore, Inc. (KinaseProfiler service)
# Experimental: as §1
# FAK = molecular target: T14, FAK (Homo sapiens, UniProt Q05397); details: 10 μM, ATP near Km
# T14 construct: purchased Millipore, Inc. (KinaseProfiler service)
# Experimental: as §1
# FGFR1 = molecular target: T15, FGFR1 (Homo sapiens, UniProt P11362); details: 10 μM, ATP near Km
# T15 construct: purchased Millipore, Inc. (KinaseProfiler service)
# Experimental: as §1
# Fyn = molecular target: T16, Fyn (Homo sapiens, UniProt P06241); details: 10 μM, ATP near Km
# T16 construct: purchased Millipore, Inc. (KinaseProfiler service)
# Experimental: as §1
# IR = molecular target: T17, IR (Homo sapiens, UniProt P06213); details: 10 μM, ATP near Km
# T17 construct: purchased Millipore, Inc. (KinaseProfiler service)
# Experimental: as §1
# IRAK4 = molecular target: T18, IRAK4 (Homo sapiens, UniProt Q9NWZ3); details: 10 μM, ATP near Km
# T18 construct: purchased Millipore, Inc. (KinaseProfiler service)
# Experimental: as §1
# JNK2alpha2 = molecular target: T19, JNK2alpha2 (Homo sapiens, UniProt P45984); details: 10 μM, ATP near Km
# T19 construct: purchased Millipore, Inc. (KinaseProfiler service)
# Experimental: as §1
# KIT = molecular target: T20, KIT (Homo sapiens, UniProt P10721); details: 10 μM, ATP near Km
# T20 construct: purchased Millipore, Inc. (KinaseProfiler service)
# Experimental: as §1
# LIMK1 = molecular target: T21, LIMK1 (Homo sapiens, UniProt P53667); details: 10 μM, ATP near Km
# T21 construct: purchased Millipore, Inc. (KinaseProfiler service)
# Experimental: as §1
# Lyn = molecular target: T22, Lyn (Homo sapiens, UniProt P07948); details: 10 μM, ATP near Km
# T22 construct: purchased Millipore, Inc. (KinaseProfiler service)
# Experimental: as §1
# MKK6 = molecular target: T23, MKK6 (Homo sapiens, UniProt P52564); details: 10 μM, ATP near Km
# T23 construct: purchased Millipore, Inc. (KinaseProfiler service)
# Experimental: as §1
# MKK7beta = molecular target: T24, MKK7beta (Homo sapiens, UniProt O14733); details: 10 μM, ATP near Km, POC verified as a false positive (footnote)
# T24 construct: purchased Millipore, Inc. (KinaseProfiler service)
# Experimental: as §1
# MLK1 = molecular target: T25, MLK1 (Homo sapiens, UniProt P80192); details: 10 μM, ATP near Km
# T25 construct: purchased Millipore, Inc. (KinaseProfiler service)
# Experimental: as §1
# Met = molecular target: T26, Met (Homo sapiens, UniProt P08581); details: 10 μM, ATP near Km
# T26 construct: purchased Millipore, Inc. (KinaseProfiler service)
# Experimental: as §1
# NEK11 = molecular target: T27, NEK11 (Homo sapiens, UniProt Q8NG66); details: 10 μM, ATP near Km
# T27 construct: purchased Millipore, Inc. (KinaseProfiler service)
# Experimental: as §1
# PDGFRalpha = molecular target: T28, PDGFRalpha (Homo sapiens, UniProt P16234); details: 10 μM, ATP near Km
# T28 construct: purchased Millipore, Inc. (KinaseProfiler service)
# Experimental: as §1
# PKCgamma = molecular target: T29, PKCgamma (Homo sapiens, UniProt P05129); details: 10 μM, ATP near Km
# T29 construct: purchased Millipore, Inc. (KinaseProfiler service)
# Experimental: as §1
# PKCtheta = molecular target: T30, PKCtheta (Homo sapiens, UniProt Q04759); details: 10 μM, ATP near Km
# T30 construct: purchased Millipore (KinaseProfiler service)
# Experimental: as §1
# PKD2 = molecular target: T31, PKD2 (Homo sapiens, UniProt Q9BZL6); details: 10 μM, ATP near Km
# T31 construct: purchased Millipore (KinaseProfiler service)
# Experimental: as §1
# PrKX = molecular target: T32, PrKX (Homo sapiens, UniProt P51817); details: 10 μM, ATP near Km
# T32 construct: purchased Millipore (KinaseProfiler service)
# Experimental: as §1
# RIPK2 = molecular target: T33, RIPK2 (Homo sapiens, UniProt O43353); details: 10 μM, ATP near Km
# T33 construct: purchased Millipore (KinaseProfiler service)
# Experimental: as §1
# Rsk2 = molecular target: T34, Rsk2 (Homo sapiens, UniProt P51812); details: 10 μM, ATP near Km
# T34 construct: purchased Millipore (KinaseProfiler service)
# Experimental: as §1
# SRC = molecular target: T35, SRC (Homo sapiens, UniProt P12931); details: 10 μM, ATP near Km
# T35 construct: purchased Millipore, Inc. (KinaseProfiler service)
# Experimental: as §1
# SRPK2 = molecular target: T36, SRPK2 (Homo sapiens, UniProt P78362); details: 10 μM, ATP near Km
# T36 construct: purchased Millipore, Inc. (KinaseProfiler service)
# Experimental: as §1
# TLK2 = molecular target: T37, TLK2 (Homo sapiens, UniProt Q86UE8); details: 10 μM, ATP near Km
# T37 construct: purchased Millipore, Inc. (KinaseProfiler service)
# Experimental: as §1
# TSSK1 = molecular target: T38, TSSK1 (Homo sapiens, UniProt Q9BXA7); details: 10 μM, ATP near Km
# T38 construct: purchased Millipore, Inc. (KinaseProfiler service)
# Experimental: as §1
# TrkA = molecular target: T39, TrkA (Homo sapiens, UniProt P04629); details: 10 μM, ATP near Km
# T39 construct: purchased Millipore, Inc. (KinaseProfiler service)
# Experimental: as §1
# TrkB = molecular target: T40, TrkB (Homo sapiens, UniProt Q16620); details: 10 μM, ATP near Km
# T40 construct: purchased Millipore, Inc. (KinaseProfiler service)
# Experimental: as §1
# p38alpha = molecular target: T41, p38alpha (Homo sapiens, UniProt Q16539); details: 10 μM, ATP near Km
# T41 construct: purchased Millipore, Inc. (KinaseProfiler service)
# Experimental: as §1
# T2 sequence (P30530 26-894): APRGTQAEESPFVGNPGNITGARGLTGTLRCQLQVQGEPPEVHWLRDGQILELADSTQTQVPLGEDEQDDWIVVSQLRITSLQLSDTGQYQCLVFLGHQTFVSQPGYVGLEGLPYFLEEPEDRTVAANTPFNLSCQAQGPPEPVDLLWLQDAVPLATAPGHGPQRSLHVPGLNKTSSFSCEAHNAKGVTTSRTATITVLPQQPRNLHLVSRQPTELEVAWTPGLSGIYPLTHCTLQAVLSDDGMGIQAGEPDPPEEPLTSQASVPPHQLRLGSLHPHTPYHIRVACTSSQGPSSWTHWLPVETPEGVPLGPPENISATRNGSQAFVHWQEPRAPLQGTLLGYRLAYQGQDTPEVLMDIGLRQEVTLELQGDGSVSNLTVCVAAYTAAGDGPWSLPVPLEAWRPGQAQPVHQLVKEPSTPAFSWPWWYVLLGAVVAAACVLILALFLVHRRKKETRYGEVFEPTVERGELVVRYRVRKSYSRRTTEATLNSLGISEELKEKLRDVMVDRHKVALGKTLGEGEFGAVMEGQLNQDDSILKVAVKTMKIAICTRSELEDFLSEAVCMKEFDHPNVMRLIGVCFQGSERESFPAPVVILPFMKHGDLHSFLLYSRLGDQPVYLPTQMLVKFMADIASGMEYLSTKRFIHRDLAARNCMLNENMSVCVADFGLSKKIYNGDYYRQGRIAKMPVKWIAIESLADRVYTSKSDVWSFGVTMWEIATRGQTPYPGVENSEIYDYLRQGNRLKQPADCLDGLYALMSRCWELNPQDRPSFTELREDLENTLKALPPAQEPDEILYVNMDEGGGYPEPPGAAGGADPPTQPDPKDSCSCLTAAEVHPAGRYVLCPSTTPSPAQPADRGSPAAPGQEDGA
# T25 sequence (P80192 whole entry): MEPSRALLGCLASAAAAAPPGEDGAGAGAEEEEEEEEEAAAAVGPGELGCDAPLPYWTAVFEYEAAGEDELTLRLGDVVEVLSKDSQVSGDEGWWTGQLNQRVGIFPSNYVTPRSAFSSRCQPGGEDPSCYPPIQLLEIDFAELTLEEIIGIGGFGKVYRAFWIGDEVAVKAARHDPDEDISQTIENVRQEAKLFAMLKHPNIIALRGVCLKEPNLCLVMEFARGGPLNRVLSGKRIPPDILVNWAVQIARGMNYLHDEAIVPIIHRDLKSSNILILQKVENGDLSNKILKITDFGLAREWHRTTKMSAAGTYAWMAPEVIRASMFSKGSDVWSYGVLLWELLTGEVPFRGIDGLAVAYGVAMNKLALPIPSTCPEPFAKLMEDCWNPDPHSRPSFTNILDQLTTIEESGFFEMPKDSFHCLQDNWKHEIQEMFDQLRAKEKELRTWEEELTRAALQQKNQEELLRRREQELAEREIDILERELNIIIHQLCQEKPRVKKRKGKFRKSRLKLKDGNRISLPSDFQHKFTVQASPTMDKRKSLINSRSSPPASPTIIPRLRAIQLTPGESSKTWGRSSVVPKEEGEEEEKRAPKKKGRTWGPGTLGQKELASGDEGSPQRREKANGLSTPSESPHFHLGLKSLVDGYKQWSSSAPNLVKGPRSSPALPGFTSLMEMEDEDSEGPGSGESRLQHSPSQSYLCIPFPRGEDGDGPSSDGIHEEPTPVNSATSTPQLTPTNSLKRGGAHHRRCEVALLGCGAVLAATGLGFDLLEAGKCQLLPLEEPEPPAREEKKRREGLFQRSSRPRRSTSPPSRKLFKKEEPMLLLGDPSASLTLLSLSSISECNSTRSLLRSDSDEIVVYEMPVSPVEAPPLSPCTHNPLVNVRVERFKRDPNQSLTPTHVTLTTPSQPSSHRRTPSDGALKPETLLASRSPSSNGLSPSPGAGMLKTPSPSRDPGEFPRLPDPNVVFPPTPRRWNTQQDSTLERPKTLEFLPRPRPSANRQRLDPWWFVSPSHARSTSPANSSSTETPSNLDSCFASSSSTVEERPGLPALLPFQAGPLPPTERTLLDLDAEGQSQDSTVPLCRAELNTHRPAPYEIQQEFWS
# T13 sequence (P54760 16-987): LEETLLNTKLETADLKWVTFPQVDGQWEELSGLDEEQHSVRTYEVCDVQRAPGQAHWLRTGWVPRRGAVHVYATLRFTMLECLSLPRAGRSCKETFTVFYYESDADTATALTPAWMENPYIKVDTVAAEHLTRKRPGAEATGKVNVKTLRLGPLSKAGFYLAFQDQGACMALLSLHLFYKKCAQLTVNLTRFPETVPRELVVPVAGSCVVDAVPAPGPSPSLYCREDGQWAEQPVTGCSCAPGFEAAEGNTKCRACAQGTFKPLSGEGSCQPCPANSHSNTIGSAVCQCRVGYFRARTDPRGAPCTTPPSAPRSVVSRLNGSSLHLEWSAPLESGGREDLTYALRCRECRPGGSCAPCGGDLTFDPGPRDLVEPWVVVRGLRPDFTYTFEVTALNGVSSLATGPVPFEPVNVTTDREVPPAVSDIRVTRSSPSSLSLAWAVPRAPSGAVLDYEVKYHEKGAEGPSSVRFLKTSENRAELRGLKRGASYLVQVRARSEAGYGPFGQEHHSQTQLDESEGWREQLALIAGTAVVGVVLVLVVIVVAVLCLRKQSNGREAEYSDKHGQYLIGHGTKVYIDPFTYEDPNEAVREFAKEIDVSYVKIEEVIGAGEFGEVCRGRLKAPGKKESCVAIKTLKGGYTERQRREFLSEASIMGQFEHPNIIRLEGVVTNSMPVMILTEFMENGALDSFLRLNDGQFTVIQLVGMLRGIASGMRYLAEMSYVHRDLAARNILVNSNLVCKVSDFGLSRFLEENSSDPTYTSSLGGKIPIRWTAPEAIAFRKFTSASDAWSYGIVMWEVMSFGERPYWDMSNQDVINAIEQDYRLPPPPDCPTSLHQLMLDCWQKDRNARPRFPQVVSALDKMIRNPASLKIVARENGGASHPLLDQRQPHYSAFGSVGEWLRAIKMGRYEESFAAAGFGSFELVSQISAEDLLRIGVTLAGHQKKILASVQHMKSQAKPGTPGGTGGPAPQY
# T10 sequence (P19784 whole entry): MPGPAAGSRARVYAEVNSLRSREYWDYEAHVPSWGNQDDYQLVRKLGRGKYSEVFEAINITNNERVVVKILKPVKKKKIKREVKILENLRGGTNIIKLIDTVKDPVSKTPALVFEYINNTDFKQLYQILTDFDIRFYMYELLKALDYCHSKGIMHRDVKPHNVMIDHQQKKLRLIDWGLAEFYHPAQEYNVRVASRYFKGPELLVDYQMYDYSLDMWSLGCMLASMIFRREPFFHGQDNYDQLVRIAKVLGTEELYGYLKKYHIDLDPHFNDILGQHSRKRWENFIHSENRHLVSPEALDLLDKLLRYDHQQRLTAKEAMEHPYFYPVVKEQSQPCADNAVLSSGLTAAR
# T41 sequence (Q16539 whole entry): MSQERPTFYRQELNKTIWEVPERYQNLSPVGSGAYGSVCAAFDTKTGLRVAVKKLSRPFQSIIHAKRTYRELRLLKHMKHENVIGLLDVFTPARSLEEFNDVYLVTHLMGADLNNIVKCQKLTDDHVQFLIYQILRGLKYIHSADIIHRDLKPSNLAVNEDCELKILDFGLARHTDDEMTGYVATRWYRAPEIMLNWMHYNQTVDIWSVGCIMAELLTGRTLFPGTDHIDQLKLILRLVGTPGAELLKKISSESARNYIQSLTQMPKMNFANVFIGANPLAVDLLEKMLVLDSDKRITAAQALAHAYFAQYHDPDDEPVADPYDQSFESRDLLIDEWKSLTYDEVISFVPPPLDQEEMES
# T18 sequence (Q9NWZ3 whole entry): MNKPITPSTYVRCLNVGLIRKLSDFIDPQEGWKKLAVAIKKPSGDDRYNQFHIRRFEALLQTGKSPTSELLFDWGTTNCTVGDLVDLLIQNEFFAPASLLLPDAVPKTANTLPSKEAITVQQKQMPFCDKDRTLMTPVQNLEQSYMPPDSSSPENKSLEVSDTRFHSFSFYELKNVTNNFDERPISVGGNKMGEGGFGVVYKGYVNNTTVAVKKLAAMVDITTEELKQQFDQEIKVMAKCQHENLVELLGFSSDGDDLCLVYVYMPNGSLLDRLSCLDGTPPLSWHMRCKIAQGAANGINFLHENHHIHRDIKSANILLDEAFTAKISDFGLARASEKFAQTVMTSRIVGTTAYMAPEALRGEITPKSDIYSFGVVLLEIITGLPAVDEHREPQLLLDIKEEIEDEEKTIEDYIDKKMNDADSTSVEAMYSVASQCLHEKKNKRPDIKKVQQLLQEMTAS
# T1 sequence (P31751 whole entry): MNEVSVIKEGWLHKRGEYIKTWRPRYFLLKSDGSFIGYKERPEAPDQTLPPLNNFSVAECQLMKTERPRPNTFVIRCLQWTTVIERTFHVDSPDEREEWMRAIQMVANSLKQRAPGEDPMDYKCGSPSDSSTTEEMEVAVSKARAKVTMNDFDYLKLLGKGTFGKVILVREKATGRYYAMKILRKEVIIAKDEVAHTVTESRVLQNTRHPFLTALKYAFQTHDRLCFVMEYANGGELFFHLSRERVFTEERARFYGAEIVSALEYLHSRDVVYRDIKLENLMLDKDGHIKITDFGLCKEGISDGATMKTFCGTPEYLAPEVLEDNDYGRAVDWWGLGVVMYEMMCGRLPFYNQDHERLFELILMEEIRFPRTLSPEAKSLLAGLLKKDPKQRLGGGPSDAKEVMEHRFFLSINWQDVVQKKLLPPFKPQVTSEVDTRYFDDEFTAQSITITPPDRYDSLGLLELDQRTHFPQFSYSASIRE
# T8 sequence (P48730 whole entry): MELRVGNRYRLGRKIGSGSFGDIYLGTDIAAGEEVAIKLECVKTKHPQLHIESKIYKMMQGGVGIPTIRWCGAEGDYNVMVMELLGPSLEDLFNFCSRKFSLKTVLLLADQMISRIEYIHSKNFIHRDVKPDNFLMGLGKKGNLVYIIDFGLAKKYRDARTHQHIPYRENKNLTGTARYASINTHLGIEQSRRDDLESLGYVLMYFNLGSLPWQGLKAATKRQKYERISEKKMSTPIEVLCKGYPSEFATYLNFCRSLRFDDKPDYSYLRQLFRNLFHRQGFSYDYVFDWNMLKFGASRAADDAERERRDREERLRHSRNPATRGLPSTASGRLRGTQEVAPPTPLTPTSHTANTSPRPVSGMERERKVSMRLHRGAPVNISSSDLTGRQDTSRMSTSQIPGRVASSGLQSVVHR
smiles,measurement,setting,value
"COCCN1C[C@@H](NC(=O)Nc2c(-c3ccccc3)nc3c(C)nccn23)[C@H](c2ccc(F)c(F)c2)C1 [Example 20, 1-((3S,4R)-4-(3,4-difluorophenyl)-1-(2-methoxyethyl)pyrrolidin-3-yl)-3-(8-methyl-2-phenylimidazo[1,2-a]pyrazin-3-yl)urea]",Avg. POC,AKT2,131 POC
same,Avg. POC,Axl,97 POC
same,Avg. POC,CAMK1d,107.5 POC
same,Avg. POC,CDK1/cyclinB,99 POC
same,Avg. POC,CDK2/cyclinA,112 POC
same,Avg. POC,CDK2/cyclinE,118.5 POC
same,Avg. POC,CDK6/cyclinD3,103.5 POC
same,Avg. POC,CK1delta,93 POC
same,Avg. POC,CK2,109 POC
same,Avg. POC,CK2alpha2,104 POC
same,Avg. POC,CLK2,106.5 POC
same,Avg. POC,ERK2,96 POC
same,Avg. POC,EphB4,102 POC
same,Avg. POC,FAK,109.5 POC
same,Avg. POC,FGFR1,102 POC
same,Avg. POC,Fyn,128.5 POC
same,Avg. POC,IR,87.5 POC
same,Avg. POC,IRAK4,124 POC
same,Avg. POC,JNK2alpha2,107.5 POC
same,Avg. POC,KIT,117.5 POC
same,Avg. POC,LIMK1,103 POC
same,Avg. POC,Lyn,104.5 POC
same,Avg. POC,MKK6,83 POC
same,Avg. POC,MKK7beta,−2 POC
same,Avg. POC,MLK1,100 POC
same,Avg. POC,Met,110 POC
same,Avg. POC,NEK11,109.5 POC
same,Avg. POC,PDGFRalpha,105.5 POC
same,Avg. POC,PKCgamma,111 POC
same,Avg. POC,PKCtheta,111.5 POC
same,Avg. POC,PKD2,113.5 POC
same,Avg. POC,PrKX,120.5 POC
same,Avg. POC,RIPK2,97.5 POC
same,Avg. POC,Rsk2,110.5 POC
same,Avg. POC,SRC,107 POC
same,Avg. POC,SRPK2,100 POC
same,Avg. POC,TLK2,105 POC
same,Avg. POC,TSSK1,107 POC
same,Avg. POC,TrkA,0 POC
same,Avg. POC,TrkB,0.5 POC
same,Avg. POC,p38alpha,97.5 POC
